The source of these data is the NIST ThermoML archive (doi:10.1016/j.jct.2016.03.025).

± gives the expanded uncertainty stated by the source.

Data set [1] can be described thus: refractive index (Na D-line) (dimensionless). The conditions noted are these: 293.15 K; 101.33 kPa; Liquid; Standard Abbe refractometry.
For data set [2] the following is noted: 293.15 K; 101.33 kPa; Liquid; Vibrating tube method.
Data set [3] is described as follows: wn = mass fraction of the nth substance listed. The conditions noted are these: 293.15 K; 101.3 kPa; Liquid; Vibrating tube method; w1 = 0.85.
The nature of data set [4]: refractive index (Na D-line) (dimensionless); wn = mass fraction of the nth substance listed. The conditions noted are these: 293.15 K; 101.3 kPa; Liquid; Standard Abbe refractometry; w1 = 0.85.

For orientation: refractive index means a measure of how strongly the sample bends light. The term mass density denotes the mass of a sample divided by its volume. Regarding `O` [water], the refractive index in data set [1] was found to be 1.333 ± 0.001. Also, the mass density in data set [2] turned out to be 998.3 ± 1 kg/m3.

Turning to `O=P(O)(O)O` [phosphoric acid] + O, in data set [3], the mass density was determined as 1682.8 ± 1 kg/m3. Besides, in data set [4], the refractive index is recorded as 1.4345 ± 0.001.

As to `CCCCCCOC(C)=O` [hexyl ethanoate], the refractive index in data set [1] was 1.4096 ± 0.0011. Further, the mass density in data set [2] amounted to 873.3 ± 1.2 kg/m3.

On to `CC(=O)OC1CCCCC1` [cyclohexyl ethanoate], for which, in data set [1], the refractive index was 1.4425 ± 0.0011. Moreover, in data set [2], the mass density is 970.1 ± 1.2 kg/m3.
